Measured values taken from patent EP0041644B1 (priority 1980, dated 1981).
Marks after values point to notes of the source that are not given here.

Columns and labels:
L1210 Leukemia [1] = experiment: L1210 Leukemia - Test 1 (survival of tumor-bearing mice); type: in vivo; conditions: d. 1 only
Source text: This evaluation of the ammonium salt finds the drug to be active against L1210 (ip) leukemia when administered ip one day post-implant of 10^6 L1210 cells (maximum T/C was 164%). […] The vehicle for the ammonium salt was water.

L1210 Leukemia [2] = experiment: L1210 Leukemia - Test 3 (vehicle comparison); type: in vivo, mice; conditions: Day 1 only, vehicle CMC + saline
B16 Melanoma [3] = experiment: B16 Melanoma - Test 1 (ip tumor brei); type: in vivo, mice; conditions: for Effect MST % T/C / MST Days: QD 1→9, vehicle CMC + H2O
B16 Melanoma [4] = experiment: B16 Melanoma - Test 2 (ip tumor brei); type: in vivo, mice; conditions: QD +9
B16 Melanoma [5] = experiment: B16 Melanoma - Test 3 (sc trocar fragments); type: in vivo, mice; conditions: for Effect MST %TC / MST Days: qd 1→9
Lewis Lung Carcinoma = Lewis Lung Carcinoma - Test 1 (ip, delayed therapy); type: in vivo, mice

[NH2][Pt]1([NH2])[O]C(=O)C(O)C(=O)[O]1 [2-Hydroxymalonato diammine platinum (II), 2-hydroxymalonato diammine platinum (II)]
Effect MST % T/C (L1210 Leukemia [1]; 20 mg/kg/day ip): 143 % T/C | MST Days (L1210 Leukemia [1]; 20 mg/kg/day ip): 10.0 days | Effect MST % T/C (L1210 Leukemia [1]; 40 mg/kg/day ip): 143 % T/C | MST Days (L1210 Leukemia [1]; 40 mg/kg/day ip): 10.0 days | Effect MST % T/C (L1210 Leukemia [1]; 60 mg/kg/day ip): 157 % T/C | MST Days (L1210 Leukemia [1]; 60 mg/kg/day ip): 11.0 days | Effect MST % T/C (L1210 Leukemia [1]; 80 mg/kg/day ip): 171 % T/C | MST Days (L1210 Leukemia [1]; 80 mg/kg/day ip): 12.0 days | Effect MST % T/C (L1210 Leukemia [2]; 40 mg/kg ip): 114 % T/C | MST Days (L1210 Leukemia [2]; 40 mg/kg ip): 8.0 days | Effect MST % T/C (L1210 Leukemia [2]; 60 mg/kg ip): 143 % T/C | MST Days (L1210 Leukemia [2]; 60 mg/kg ip): 10.0 days | Effect MST % T/C (L1210 Leukemia [2]; 80 mg/kg ip): 129 % T/C | MST Days (L1210 Leukemia [2]; 80 mg/kg ip): 9.0 days | Effect MST % T/C (L1210 Leukemia [2]; 100 mg/kg ip): 100 % T/C | MST Days (L1210 Leukemia [2]; 100 mg/kg ip): 7.0 days | Effect MST % T/C (B16 Melanoma [3]; 2 mg/kg/day ip): 133 % T/C | MST Days (B16 Melanoma [3]; 2 mg/kg/day ip): 26.0 days | Effect MST % T/C (B16 Melanoma [3]; 4 mg/kg/day ip): 187 % T/C | MST Days (B16 Melanoma [3]; 4 mg/kg/day ip): 36.5 days | Effect MST % T/C (B16 Melanoma [3]; 8 mg/kg/day ip): 177 % T/C | MST Days (B16 Melanoma [3]; 8 mg/kg/day ip): 34.5 days | Effect MST % T/C (B16 Melanoma [3]; 16 mg/kg/day ip): >308* % T/C | MST Days (B16 Melanoma [3]; 16 mg/kg/day ip): >60.0* Days | Effect MST % T/C (B16 Melanoma [3]; 24 mg/kg/day ip): 54 % T/C | MST Days (B16 Melanoma [3]; 24 mg/kg/day ip): 10.5 days | Effect MST % T/C (B16 Melanoma [3]; 32 mg/kg/day ip): 38 % T/C | MST Days (B16 Melanoma [3]; 32 mg/kg/day ip): 7.5 days | maximum T/C (B16 Melanoma [3]; ip B16, ip QD 1→9): > 308% | Average Weight Change (B16 Melanoma [4]; 2 mg/kg/day ip): -1.1 g | Effect MST % T/C (B16 Melanoma [4]; 2 mg/kg/day ip): 182 % T/C | MST Days (B16 Melanoma [4]; 2 mg/kg/day ip): 37.5 days | Average Weight Change (B16 Melanoma [4]; 4 mg/kg/day ip): -1.1 g | Effect MST % T/C (B16 Melanoma [4]; 4 mg/kg/day ip): 163 % T/C | MST Days (B16 Melanoma [4]; 4 mg/kg/day ip): 33.5 days | Average Weight Change (B16 Melanoma [4]; 8 mg/kg/day ip): -2.1 g | Effect MST % T/C (B16 Melanoma [4]; 8 mg/kg/day ip): 190 % T/C | MST Days (B16 Melanoma [4]; 8 mg/kg/day ip): 39.0 days | Average Weight Change (B16 Melanoma [4]; 16 mg/kg/day ip): -2.3 g | Effect MST % T/C (B16 Melanoma [4]; 16 mg/kg/day ip): >293^a % T/C | MST Days (B16 Melanoma [4]; 16 mg/kg/day ip): >60.0^a Days | Effect MST %TC (B16 Melanoma [5]; 8 mg/kg/inj ip): 131 %TC | MST Days (B16 Melanoma [5]; 8 mg/kg/inj ip): 40.0 days | Effect MST %TC (B16 Melanoma [5]; 12 mg/kg/inj ip): 115 %TC | MST Days (B16 Melanoma [5]; 12 mg/kg/inj ip): 35.0 days | Effect MST %TC (B16 Melanoma [5]; 16 mg/kg/inj ip): 48 %TC | MST Days (B16 Melanoma [5]; 16 mg/kg/inj ip): 14.5 days | Effect MST %TC (B16 Melanoma [5]; 24 mg/kg/inj ip): TOX | MST Days (B16 Melanoma [5]; 24 mg/kg/inj ip): TOX | T/C (B16 Melanoma [5]; given ip, sc-implanted B16 melanoma): 131% | Effect MST %TC (Lewis Lung Carcinoma; 8 mg/kg/inj ip, qd 5→13): 112 %TC | MST Days (Lewis Lung Carcinoma; 8 mg/kg/inj ip, qd 5→13): 14.0 days | Effect MST %TC (Lewis Lung Carcinoma; 12 mg/kg/inj ip, qd 5→13): 168 %TC | MST Days (Lewis Lung Carcinoma; 12 mg/kg/inj ip, qd 5→13): 21.0 days | Effect MST %TC (Lewis Lung Carcinoma; 16 mg/kg/inj ip, qd 5→13): 176 %TC | MST Days (Lewis Lung Carcinoma; 16 mg/kg/inj ip, qd 5→13): 22.0 days | Effect MST %TC (Lewis Lung Carcinoma; 20 mg/kg/inj ip, d. 5,9&13): 100 %TC | MST Days (Lewis Lung Carcinoma; 20 mg/kg/inj ip, d. 5,9&13): 12.5 days | Effect MST %TC (Lewis Lung Carcinoma; 24 mg/kg/inj ip, qd 5→13): 220 %TC | MST Days (Lewis Lung Carcinoma; 24 mg/kg/inj ip, qd 5→13): 27.5 days | Effect MST %TC (Lewis Lung Carcinoma; 40 mg/kg/inj ip, d. 5,9&13): 120 %TC | MST Days (Lewis Lung Carcinoma; 40 mg/kg/inj ip, d. 5,9&13): 15.0 days | Effect MST %TC (Lewis Lung Carcinoma; 60 mg/kg/inj ip, d. 5,9&13): 156 %TC | MST Days (Lewis Lung Carcinoma; 60 mg/kg/inj ip, d. 5,9&13): 19.5 days | Effect MST %TC (Lewis Lung Carcinoma; 80 mg/kg/inj ip, d. 5,9&13): 152 %TC | MST Days (Lewis Lung Carcinoma; 80 mg/kg/inj ip, d. 5,9&13): 19.0 days | Survivors Day 9(48) (Lewis Lung Carcinoma; Day 48 (figure in parentheses), 60 mg/kg/inj ip, d. 5,9&13): 1 | maximum T/C (Lewis Lung Carcinoma; given ip, therapy from day 5): 220% | Survivors Day 9(48) (Lewis Lung Carcinoma; mouse, in vivo, ip, 8 mg/kg): 6/6 | Survivors Day 9(48) (Lewis Lung Carcinoma; mouse, in vivo, ip, 12 mg/kg): 6/6 | Survivors Day 9(48) (Lewis Lung Carcinoma; mouse, in vivo, ip, 16 mg/kg): 6/6 | Survivors Day 9(48) (Lewis Lung Carcinoma; mouse, in vivo, ip, 20 mg/kg): 6/6 | Survivors Day 9(48) (Lewis Lung Carcinoma; mouse, in vivo, ip, 24 mg/kg): 6/6 | Survivors Day 9(48) (Lewis Lung Carcinoma; mouse, in vivo, ip, 40 mg/kg): 6/6 | Survivors Day 9(48) (Lewis Lung Carcinoma; mouse, in vivo, ip, 60 mg/kg): 6/6 | Survivors Day 9(48) (Lewis Lung Carcinoma; mouse, in vivo, ip, 80 mg/kg): 6/6
